Laboratory results as given in publication PMC10296347, “Identification of the Stapled α-Helical Peptide ATSP-7041 as a Substrate and Strong Inhibitor of OATP1B1 In Vitro” (Biomolecules, 2023).
Blank lines part the entries; values can stand above or below the compound they belong to.

Key:
OATP1B1 [1] = molecular target: T1, OATP1B1 (Homo sapiens, UniProt Q9Y6L6); test: Uptake by OATP1B1-expressing HEK293 cells (substrate evaluation); settings: E217βG 1 μM, 5 min, 37 °C
T1 sequence (Q9Y6L6 1-691): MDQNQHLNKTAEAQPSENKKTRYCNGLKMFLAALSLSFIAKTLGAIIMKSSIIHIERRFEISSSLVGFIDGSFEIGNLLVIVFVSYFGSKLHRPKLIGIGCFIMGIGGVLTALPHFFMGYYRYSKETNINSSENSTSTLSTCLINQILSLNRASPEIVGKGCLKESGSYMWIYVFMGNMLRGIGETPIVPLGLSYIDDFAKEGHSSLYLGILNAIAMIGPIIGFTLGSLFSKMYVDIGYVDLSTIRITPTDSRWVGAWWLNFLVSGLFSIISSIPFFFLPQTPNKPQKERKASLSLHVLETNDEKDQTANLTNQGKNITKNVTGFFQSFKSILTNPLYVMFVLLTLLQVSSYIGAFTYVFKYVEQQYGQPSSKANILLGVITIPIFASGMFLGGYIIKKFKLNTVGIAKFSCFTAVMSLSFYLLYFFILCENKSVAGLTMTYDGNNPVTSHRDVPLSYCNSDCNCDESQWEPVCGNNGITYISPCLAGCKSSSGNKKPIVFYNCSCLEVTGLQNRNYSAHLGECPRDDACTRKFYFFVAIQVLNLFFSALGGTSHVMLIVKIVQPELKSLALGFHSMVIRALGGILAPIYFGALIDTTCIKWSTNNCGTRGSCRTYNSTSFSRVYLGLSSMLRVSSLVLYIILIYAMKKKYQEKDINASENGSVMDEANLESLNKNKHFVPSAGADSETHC
Protocol: (§1) The evaluation of ATSP-7041 as a substrate for OATP1B1 was performed using OATP1B1-expressing HEK293 cells in 24- or 96-well plates according to the manufacturer’s protocol (v1.9 for OATP1B1) with minor modifications. In brief, after equilibration with the transport buffer, the buffer was replaced with a fresh transport buffer containing the indicated concentrations of ATSP-7041 or 1 μM E217βG in the presence or absence of positive control inhibitors (50 μM rifampicin or 10 μM cyclosporine). After incubation for the indicated time at 37 °C, the cells were immediately rinsed twice with an ice-cold transport buffer. Substrates were extracted by incubation with 400 μL (for 24-well) or 100 μL (for 96-well) of 0.1% formic acid in acetonitrile-containing internal standard (IS) (0.125 μM benzyl-ATSP-7041 for ATSP-7041 in uptake experiment of various concentrations of ATSP-7041 or 0.0125 μM for ATSP-7041 in all other experiments of benzyl-ATSP-7041 and 0.1 μM estradiol-3β-glucuronide) for 5 min at 20–25 °C, filtered using a PVDF-based filter, diluted 1.4 times (ATSP-7041) or 2 times (E217βG) with water, and analyzed using LC/MS.
LC/MS analysis data were quantified using Trace Finder 4.1 (Thermo Fisher Scientific, Waltham, MA, USA) for peak detection and area quantification. […] Differences in all figures were analyzed and all data were plotted using GraphPad Prism 9 (GraphPad Software). […]

OATP1B3 = molecular target: T2, OATP1B3 (Homo sapiens, UniProt Q9NPD5); test: Uptake by OATP1B3-expressing HEK293 cells (substrate evaluation); settings: E217βG 3 μM, 5 min, 37 °C
T2 sequence (Q9NPD5 1-702): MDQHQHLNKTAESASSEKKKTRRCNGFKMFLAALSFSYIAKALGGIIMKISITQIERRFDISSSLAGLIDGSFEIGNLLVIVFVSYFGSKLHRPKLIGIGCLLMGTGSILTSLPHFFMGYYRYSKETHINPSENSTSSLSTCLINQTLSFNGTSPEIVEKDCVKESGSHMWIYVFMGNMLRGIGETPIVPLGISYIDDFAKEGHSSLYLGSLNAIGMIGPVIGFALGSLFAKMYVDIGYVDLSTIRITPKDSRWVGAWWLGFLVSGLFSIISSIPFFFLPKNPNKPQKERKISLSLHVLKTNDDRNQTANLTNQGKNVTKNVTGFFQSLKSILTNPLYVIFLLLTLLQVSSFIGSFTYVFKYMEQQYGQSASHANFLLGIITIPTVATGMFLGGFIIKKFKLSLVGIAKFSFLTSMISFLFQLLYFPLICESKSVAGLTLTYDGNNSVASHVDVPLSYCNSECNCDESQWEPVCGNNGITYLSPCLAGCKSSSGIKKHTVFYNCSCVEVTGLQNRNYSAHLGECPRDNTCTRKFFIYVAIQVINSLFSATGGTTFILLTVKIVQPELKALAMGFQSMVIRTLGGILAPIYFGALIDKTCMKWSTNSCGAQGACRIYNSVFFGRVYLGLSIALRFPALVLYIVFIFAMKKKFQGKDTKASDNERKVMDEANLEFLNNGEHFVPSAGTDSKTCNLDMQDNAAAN
Protocol: after the time course assessment (0, 5, 10, 20, 30, 40, and 60 min). Similarly, the inhibitory […]
measuring testosterone and 6β-hydroxytestosterone at 90 min, after the time course assessment (0, 10, 20, 40, 60, 90, and 120 min). Other human liver S9 (B, C, and D) fractions were also used to evaluate vendor differences. Midazolam, 1ʹ-hydroxymidazolam, testosterone, and 6β-hydroxytestosterone were detected using LC/MS.
4. Evaluation of ATSP-7041 as a substrate of transporters
The evaluation of ATSP-7041 as a substrate for OATP1B1 and OATP1B3 transporters was performed using OATP1B-expressing HEK293 cells in 24-well plates according to the manufacturer’s protocol (v1.9 for OATP1B1 and v2.0 for OATP1B3) with minor modifications.
In brief, after equilibration with the transport buffer, the buffer was replaced with a fresh transport buffer containing ATSP-7041 (0.2 μM) or E217βG (1 μM for OATP1B1 or 3 μM for OATP1B3). After incubation for 5 min at 37 °C, the cells were immediately rinsed twice with ice-cold transport buffer. Substrates were extracted by incubation with 400 μL of 0.1% formic acid in acetonitrile containing IS (0.0125 μM benzyl-ATSP-7041 and 0.1 μM estradiol-3β-glucuronide) for 5 min at 20-25 °C, filtered using a PVDF-based filter, diluted 1.4 times (ATSP-7041) or 2 times (E217βG) with water, and analyzed by LC/MS. […]

OATP1B1 [2] = molecular target: T1, OATP1B1
Protocol: The inhibitory activities of ATSP-7041 on OATP1B1 were evaluated using OATP1B-expressing HEK293 cells in 96-well plates as described above. For dose-dependent inhibition, ATSP-7041 at the indicated concentrations was added to the transport buffer, and E217βG was used as the substrate. To study the pre-incubation effect, the cells were pre-incubated with 10 μM ATSP-7041 or 10 μM cyclosporine in transport buffer after equilibration with the transport buffer for 30 min at 37 °C and washed twice before the replacement of the transport buffer containing E217βG.
LC/MS analysis data were quantified using Trace Finder 4.1 (Thermo Fisher Scientific, Waltham, MA, USA) for peak detection and area quantification. To study the transport activities of OATP1B1, the OATP1B1-mediated uptake of ATSP-7041 and E217βG was determined by normalization with IS (divide the area of ion peak) and subsequent background-corrected uptake using mock cells. To evaluate the inhibitory activities of ATSP-7041 on OATP1B1, transporter activities were determined as a percent of the control (activities without ATSP-7041) at each concentration, and the half maximal inhibitory concentration (IC50) for the inhibition of OATP1B1 activity by ATSP-7041 was determined by fitting a curve (inhibitor concentrations vs. normalized response) using GraphPad Prism 8 (GraphPad Software, San Diego, CA, USA). […]

in vitro = settings: human, s9, pH 7.4
BCRP = molecular target: T3, BCRP (Homo sapiens, UniProt Q9UNQ0); test: ATP-dependent uptake by inside-out membrane vesicles expressing BCRP; settings: Lucifer yellow 50 μM
T3 sequence (Q9UNQ0 1-655): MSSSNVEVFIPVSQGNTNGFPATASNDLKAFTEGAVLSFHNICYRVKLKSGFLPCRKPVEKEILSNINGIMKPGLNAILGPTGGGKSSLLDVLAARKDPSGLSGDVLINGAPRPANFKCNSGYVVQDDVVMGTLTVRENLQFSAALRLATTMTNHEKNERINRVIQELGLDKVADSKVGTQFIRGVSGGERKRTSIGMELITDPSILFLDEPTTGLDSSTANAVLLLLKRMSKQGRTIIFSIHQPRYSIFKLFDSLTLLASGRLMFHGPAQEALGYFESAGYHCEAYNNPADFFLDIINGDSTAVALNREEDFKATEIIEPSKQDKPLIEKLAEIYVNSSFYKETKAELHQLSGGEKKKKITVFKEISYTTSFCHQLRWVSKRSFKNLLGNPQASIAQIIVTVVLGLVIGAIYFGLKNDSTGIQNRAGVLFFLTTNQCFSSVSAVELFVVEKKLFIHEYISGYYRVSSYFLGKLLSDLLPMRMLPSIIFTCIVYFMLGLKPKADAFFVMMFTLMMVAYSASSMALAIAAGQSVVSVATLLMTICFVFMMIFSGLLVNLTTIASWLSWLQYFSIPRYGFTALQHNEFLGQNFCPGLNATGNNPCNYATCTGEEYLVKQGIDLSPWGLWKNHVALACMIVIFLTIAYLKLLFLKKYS

OATP1B1 [3] = molecular target: T1, OATP1B1; remark: listed apart in the source
Protocol: as §1

P-gp = P-gp (Homo sapiens, UniProt P08183); test: ATP-dependent uptake by inside-out membrane vesicles expressing P-gp; settings: NMQ 2 μM
P-gp, sequence (P08183 whole entry): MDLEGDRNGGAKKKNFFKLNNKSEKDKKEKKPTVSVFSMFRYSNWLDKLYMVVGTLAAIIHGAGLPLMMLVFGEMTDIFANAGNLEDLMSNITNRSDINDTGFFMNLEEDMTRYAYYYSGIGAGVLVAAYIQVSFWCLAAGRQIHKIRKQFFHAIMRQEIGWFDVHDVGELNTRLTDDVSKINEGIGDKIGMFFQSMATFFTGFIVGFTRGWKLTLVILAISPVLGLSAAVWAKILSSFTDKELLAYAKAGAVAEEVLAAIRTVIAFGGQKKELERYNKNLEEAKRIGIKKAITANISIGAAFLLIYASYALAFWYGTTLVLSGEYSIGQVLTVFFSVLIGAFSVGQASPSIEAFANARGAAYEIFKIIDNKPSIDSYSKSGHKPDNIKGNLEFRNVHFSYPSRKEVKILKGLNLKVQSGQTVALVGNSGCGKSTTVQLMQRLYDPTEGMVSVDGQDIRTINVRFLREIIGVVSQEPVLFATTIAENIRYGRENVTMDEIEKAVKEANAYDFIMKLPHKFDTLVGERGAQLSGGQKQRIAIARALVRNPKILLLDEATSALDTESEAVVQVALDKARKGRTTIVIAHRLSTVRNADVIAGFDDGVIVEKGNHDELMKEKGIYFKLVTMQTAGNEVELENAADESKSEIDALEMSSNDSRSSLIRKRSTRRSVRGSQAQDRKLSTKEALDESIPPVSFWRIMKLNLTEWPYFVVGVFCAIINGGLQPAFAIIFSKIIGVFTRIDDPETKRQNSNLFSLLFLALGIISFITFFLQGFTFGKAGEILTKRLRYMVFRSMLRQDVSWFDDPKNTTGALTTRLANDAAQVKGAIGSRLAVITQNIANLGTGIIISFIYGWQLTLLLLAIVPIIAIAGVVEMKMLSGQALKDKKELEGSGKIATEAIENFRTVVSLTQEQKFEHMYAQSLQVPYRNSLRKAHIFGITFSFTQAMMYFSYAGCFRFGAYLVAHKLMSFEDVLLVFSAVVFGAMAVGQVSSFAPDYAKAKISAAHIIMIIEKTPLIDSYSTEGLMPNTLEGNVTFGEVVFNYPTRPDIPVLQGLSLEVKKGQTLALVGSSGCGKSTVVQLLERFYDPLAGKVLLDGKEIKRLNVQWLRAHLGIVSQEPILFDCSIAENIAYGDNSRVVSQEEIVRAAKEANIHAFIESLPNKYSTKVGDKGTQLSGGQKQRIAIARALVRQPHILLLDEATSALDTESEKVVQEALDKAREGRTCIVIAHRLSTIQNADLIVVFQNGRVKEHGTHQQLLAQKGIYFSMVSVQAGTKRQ

Compound: C[C@]12CC[C@@H]3c4ccc(O)cc4CC[C@H]3[C@@H]1CC[C@@H]2O[C@@H]1O[C@H](C(=O)O)[C@@H](O)[C@H](O)[C@H]1O [E217βG, Estradiol-17β-glucuronide]
uptake of control substrate in OATP1B1-transfected HEK293 cells relative to mock cells (OATP1B1 [1]): approximately 611 fold | uptake of control substrate in OATP1B3-transfected HEK293 cells relative to mock cells (OATP1B3): ~137 fold

IC50 (OATP1B1 [2]): 810 nM | inhibition at 10 µM (OATP1B1 [2]): > 96% | remaining at 24 h, 0.5 μM (in vitro): 91.6%
Compound: CC(=O)N[C@@H](CC(C)C)C(=O)N[C@H](C(=O)N[C@@H](Cc1ccccc1)C(=O)N[C@]1(C)CCCCCCC=CCCC[C@@](C)(C(=O)N[C@@H](CO)C(=O)N[C@@H](C)C(=O)N[C@@H](C)C(N)=O)NC(=O)[C@H](CC2CCC2)NC(=O)[C@H](CCC(N)=O)NC(=O)[C@H](C)NC(=O)[C@H](Cc2c[nH]c3ccccc23)NC(=O)[C@H](Cc2ccc(O)cc2)NC(=O)[C@H](CCC(=O)O)NC1=O)[C@@H](C)O [ATSP-7041]

Compound: Lucifer yellow
ATP-dependent uptake of positive control substrate by BCRP compared to mock vesicles (BCRP): clearly observed

Compound: CO[C@H]1/C=C/O[C@@]2(C)Oc3c(C)c(O)c4c(O)c(c(/C=N/N5CCN(C)CC5)c(O)c4c3C2=O)NC(=O)/C(C)=C\C=C\[C@H](C)[C@H](O)[C@@H](C)[C@@H](O)[C@@H](C)[C@H](OC(C)=O)[C@@H]1C [rifampicin]
uptake of control substrate E217βG by OATP1B1-expressing HEK293 cells with inhibitor, % of without inhibitor (OATP1B1 [3]; rifampicin 50 μM, E217βG 1 μM, 5 min co-incubation): < 4% | effect of index inhibitors on OATP1B1-dependent uptake of ATSP-7041 (OATP1B1 [3]; substrate ATSP-7041 0.2 μM, rifampicin 50 μM or cyclosporine 10 μM, 5 and 60 min, 37 °C): significantly inhibited

Compound: C=C[C@H]1C[N+]2(C)CC[C@H]1C[C@@H]2[C@@H](O)c1ccnc2ccc(OC)cc12 [NMQ, N-methyl-quinidine]
ATP-dependent uptake of positive control substrate by P-gp compared to mock vesicles (P-gp): clearly observed
